Where a name gives a salt, the structure may show the parent alone.

T1 sequence (P13569 whole entry): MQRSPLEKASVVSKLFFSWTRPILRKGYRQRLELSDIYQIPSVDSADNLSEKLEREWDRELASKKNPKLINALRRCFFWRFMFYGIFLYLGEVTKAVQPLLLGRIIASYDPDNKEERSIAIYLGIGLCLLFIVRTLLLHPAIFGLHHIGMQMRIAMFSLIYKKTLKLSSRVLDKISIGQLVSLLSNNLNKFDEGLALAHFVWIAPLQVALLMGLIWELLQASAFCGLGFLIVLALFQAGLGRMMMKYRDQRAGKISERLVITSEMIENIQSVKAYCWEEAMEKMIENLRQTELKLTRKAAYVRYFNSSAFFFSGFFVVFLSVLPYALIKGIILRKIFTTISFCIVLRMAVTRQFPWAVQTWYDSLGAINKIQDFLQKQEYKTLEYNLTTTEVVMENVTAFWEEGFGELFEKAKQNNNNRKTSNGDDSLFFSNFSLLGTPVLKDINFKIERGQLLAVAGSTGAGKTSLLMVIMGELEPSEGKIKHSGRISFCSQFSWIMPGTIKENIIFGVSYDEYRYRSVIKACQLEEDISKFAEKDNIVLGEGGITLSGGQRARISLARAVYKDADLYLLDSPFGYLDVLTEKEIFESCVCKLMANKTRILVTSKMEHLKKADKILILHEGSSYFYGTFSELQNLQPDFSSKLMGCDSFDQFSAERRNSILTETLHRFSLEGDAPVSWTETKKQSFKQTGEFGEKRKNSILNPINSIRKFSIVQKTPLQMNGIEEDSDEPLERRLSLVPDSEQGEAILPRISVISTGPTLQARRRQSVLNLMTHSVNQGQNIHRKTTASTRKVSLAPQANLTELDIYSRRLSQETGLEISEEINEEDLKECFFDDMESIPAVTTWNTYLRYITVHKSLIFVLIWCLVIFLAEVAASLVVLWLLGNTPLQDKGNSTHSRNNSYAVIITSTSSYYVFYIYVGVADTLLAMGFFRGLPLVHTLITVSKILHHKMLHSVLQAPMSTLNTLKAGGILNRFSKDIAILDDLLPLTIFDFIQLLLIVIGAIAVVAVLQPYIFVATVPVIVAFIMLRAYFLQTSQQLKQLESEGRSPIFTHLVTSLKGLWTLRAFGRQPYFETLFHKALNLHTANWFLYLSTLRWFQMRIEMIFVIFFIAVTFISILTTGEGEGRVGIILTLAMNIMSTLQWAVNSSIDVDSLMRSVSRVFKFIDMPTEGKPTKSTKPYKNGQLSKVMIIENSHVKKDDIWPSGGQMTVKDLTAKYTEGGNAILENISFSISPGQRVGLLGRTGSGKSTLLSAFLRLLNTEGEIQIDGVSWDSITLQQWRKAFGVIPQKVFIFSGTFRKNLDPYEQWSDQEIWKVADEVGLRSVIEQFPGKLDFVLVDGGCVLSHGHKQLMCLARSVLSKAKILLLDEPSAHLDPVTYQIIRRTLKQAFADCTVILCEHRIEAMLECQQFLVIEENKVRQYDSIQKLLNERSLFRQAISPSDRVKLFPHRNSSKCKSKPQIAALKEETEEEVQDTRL

This test concerns the target T1, CFTR channel in human colonic T84 cells (Homo sapiens, UniProt P13569).
T1 construct: results in the phosphorylation and opening of CFTR anion channels; host or cells: human colonic T84 cells
As to the kind of experiment: T84 assay (FLIPR membrane potential dye, forskolin/IBMX-stimulated CFTR). It is filed as cell-based. To be noted: average of at least 2 runs unless annotated n = 1. The protocol: (§1) For example, Human colonic T84 cells can be acquired from the European Collection of Cell Cultures (ECACC) and grown in standard culture conditions as described by the supplier. On the day before assay 25,000 T84 cells per well are plated into standard black walled, clear bottom 384-well assay plates in standard growth medium consisting of DMEM:F12 with 10% FBS and incubated overnight. On the day of the assay the plates are washed using a standard assay buffer (HBSS with 10 mM Hepes) and incubated for 15 minutes in serum free cell culture medium before the addition of a commercially available membrane potential sensitive fluorescent dye (FLIPR Red membrane potential dye, Molecular Devices Corporation). T84 cells are incubated with the FLIPR Red membrane potential dye for 45 minutes in the presence and absence of test compound before being transferred to a commercially available fluorescence imaging plate reader (FLIPR384, Molecular Devices Corporation). Fluorescence levels are monitored continuously every second for 150 seconds; after an initial 10 second baseline, CFTR channel activity is stimulated through the addition of 10 μM forskolin in the presence of 100 μM of the phosphodiesterase inhibitor iso-butyl-methylxanthine (IBMX). Addition of the forskolin leads to the activation of intracellular adenylyl cylase 1, elevating cAMP levels and results in the phosphorylation and opening of CFTR anion channels. CFTR channel opening causes chloride ion efflux and subsequent depolarization of the cells, which is measured by an increase in fluorescence. CFTR inhibitor compounds prevent cell depolarization and the associated increase in fluorescence.
as §1, with “Human colonic” for “For example, Human colonic”, “T84 cells are acquired from” for “T84 cells can be acquired from”, “(ECACC) and are grown in” for “(ECACC) and grown in”
For the molecule `Oc1c(Cl)cc(-c2cnc(C(O)(c3ccccc3)c3ccccc3)nn2)cc1Cl` [Compound 36, 2,6-dichloro-4-(3-(hydroxydiphenylmethyl)-1,2,4-triazin-6-yl)phenol], the IC50 is 7.67 µM. Consider `CN(Cc1ccc(COc2ncc(-c3cc(Cl)c(O)c(Cl)c3)nn2)cc1)Cc1cccnc1` [Compound 222, 2,6-dichloro-4-(3-(4-((methyl(pyridin-3-ylmethyl)amino)methyl)benzyl-oxy)-1,2,4-triazin-6-yl)phenol], for which the IC50 came out at 11.2 µM.

`CN(Cc1ccc(COc2ncc(-c3cc(Cl)c(O)c(Cl)c3)nn2)cc1)Cc1ccc(-c2cncnc2)cc1` [Compound 207, 2,6-dichloro-4-(3-(4-((methyl(4-(pyrimidin-5-yl)benzyl)amino)methyl)benzyl-oxy)-1,2,4-triazin-6-yl)phenol] had an IC50 of 2.99 µM. In the case of `Oc1c(Br)cc(-c2cnc(OCc3ccc(C(F)(F)F)cc3)nn2)cc1Br` [Compound 16, 2,6-dibromo-4-(3-(4-(trifluoromethyl)benzyloxy)-1,2,4-triazin-6-yl)phenol] it was 1.07 µM; in that of `CC(=O)N1CCN(Cc2ccc(COc3ncc(-c4cc(Cl)c(O)c(Cl)c4)nn3)cc2)CC1` [Compound 216, 1-(4-(4-((6-(3,5-dichloro-4-hydroxyphenyl)-1,2,4-triazin-3-yloxy)methyl)benzyl)piperazin-1-yl)ethanone], 23.2 µM; in that of `Oc1c(Br)cc(-c2cnc(C(O)(c3ccccc3)c3ccccc3)nn2)cc1Br` [Compound 32, 2,6-dibromo-4-(3-(hydroxydiphenylmethyl)-1,2,4-triazin-6-yl)phenol], 4.93 µM. As for `Cc1cc(Cl)ccc1OCc1ncc(-c2cc(Cl)c(O)c(Cl)c2)nn1` [Compound 40, 2,6-dichloro-4-(3-((4-chloro-2-methylphenoxy)methyl)-1,2,4-triazin-6-yl)phenol], the figure is 10.5 µM; as for `Oc1c(Br)cc(-c2cnc(OC3CCc4ccccc4C3)nn2)cc1Br` (stereo not drawn) [Compound 108, 2,6-dibromo-4-(3-(1,2,3,4-tetrahydronaphthalen-2-yloxy)-1,2,4-triazin-6-yl)phenol], 1.18 µM; as for `Oc1c(Br)cc(-c2cnc(OCc3ccc4ccccc4c3)nn2)cc1Br` [Compound 8, 2,6-dibromo-4-(3-(naphthalen-2-ylmethoxy)-1,2,4-triazin-6-yl)phenol], 0.72 µM.

In turn, `Oc1c(Cl)cc(-c2cnc(OCc3ccc(CNC(CN4CCOCC4)c4ccccc4)cc3)nn2)cc1Cl` (stereo not drawn) [Compound 157, 2,6-dichloro-4-(3-(4-((2-morpholino-1-phenylethylamino)methyl)benzyloxy)-1,2,4-triazin-6-yl)phenol] yielded a 50% inhibitory concentration (IC50) of 2.27 µM. With `Oc1c(Br)cc(-c2cnc(OC3c4ccccc4Oc4ccccc43)nn2)cc1Br` [Compound 91, 4-(3-(9H-xanthen-9-yloxy)-1,2,4-triazin-6-yl)-2,6-dibromophenol], inhibition was half-maximal at 4.09 µM (IC50). In the case of `COc1ccc(CNc2ncc(-c3cc(Cl)c(O)c(Cl)c3)nn2)cc1` [Compound 132, 2,6-dichloro-4-(3-(4-methoxybenzylamino)-1,2,4-triazin-6-yl)phenol] it was 12.1 µM; in that of `CNC(=O)C1Cc2ccccc2CN1Cc1ccc(COc2ncc(-c3cc(Cl)c(O)c(Cl)c3)nn2)cc1` (stereo not drawn) [Compound 185, 2-(4-((6-(3,5-dichloro-4-hydroxyphenyl)-1,2,4-triazin-3-yloxy)methyl)benzyl)-N-methyl-1,2,3,4-tetrahydroisoquinoline-3-carboxamide], 4.64 µM; in that of `CN(Cc1ccc(F)cc1)Cc1ccc(COc2ncc(-c3cc(Cl)c(O)c(Cl)c3)nn2)cc1` [Compound 165, 2,6-dichloro-4-(3-(4-(((4-fluorobenzyl)(methyl)amino)methyl)benzyloxy)-1,2,4-triazin-6-yl)phenol], 2.46 µM. As for `Oc1c(Cl)cc(-c2cnc(OCc3ccc(CN4CCC(C(O)(c5ccccc5)c5ccccc5)CC4)cc3)nn2)cc1Cl` [Compound 174, 2,6-dichloro-4-(3-(4-((4-(hydroxydiphenylmethyl)piperidin-1-yl)methyl)benzyloxy)-1,2,4-triazin-6-yl)phenol, formate salt], the figure is 15.1 µM; as for `Oc1c(Br)cc(-c2cnc(OCCc3ccccc3Cl)nn2)cc1Br` [Compound 94, 2,6-dibromo-4-(3-(2-chlorophenethoxy)-1,2,4-triazin-6-yl)phenol], 0.34 µM. In the case of `Oc1c(Cl)cc(-c2cnc(OCc3ccc(OC(F)(F)F)cc3)nn2)cc1Cl` [Compound 154, 2,6-dichloro-4-(3-(4-(trifluoromethoxy)benzyloxy)-1,2,4-triazin-6-yl)phenol] it was 1.56 µM; in that of `Oc1c(Br)cc(-c2cnc(COc3cccc(Cl)c3Cl)nn2)cc1Br` [Compound 30, 2,6-dibromo-4-(3-((2,3-dichlorophenoxy)methyl)-1,2,4-triazin-6-yl)phenol], 9.59 µM. For `CCN(CC)CC(NCc1ccc(COc2ncc(-c3cc(Cl)c(O)c(Cl)c3)nn2)cc1)c1ccccc1` (stereo not drawn) [Compound 190, 2,6-dichloro-4-(3-(4-((2-(diethylamino)-1-phenylethylamino)methyl)benzyloxy)-1,2,4-triazin-6-yl)phenol], it took 21 µM to reach half-maximal inhibition (IC50). As to `Oc1c(Cl)cc(-c2cnc(OCc3ccc(CNCc4cccc(Cl)c4Cl)cc3)nn2)cc1Cl` [Compound 141, 2,6-dichloro-4-(3-(4-((2,3 —dichlorobenzylamino)methyl)benzyloxy)-1,2,4-triazin-6-yl)phenol], half-maximal inhibition (IC50) required 3.81 µM. Regarding `Oc1c(Cl)cc(-c2cnc(OCc3ccc(CN4CCc5ccc(Br)cc5C4)cc3)nn2)cc1Cl` [Compound 180], the IC50 is 3.54 µM. On to `CN(Cc1ccccc1)Cc1ccc(COc2ncc(-c3cc(Cl)c(O)c(Cl)c3)nn2)cc1` [Compound 163, 4-(3-(4-((benzyl(methyl)amino)methyl)benzyloxy)-1,2,4-triazin-6-yl)-2,6-dichlorophenol], for which the IC50 came out at 2.66 µM. As to `CN(Cc1ccc(COc2ncc(-c3cc(Cl)c(O)c(Cl)c3)nn2)cc1)Cc1ccc(CN2CCCC2)cc1` [Compound 211, 2,6-dichloro-4-(3-(4-((methyl(4-(pyrrolidin-1-ylmethyl)benzyl)amino)methyl)benzyloxy)-1,2,4-triazin-6-yl)phenol, diformate salt], inhibition was half-maximal at 8.04 µM (IC50). As for `Oc1c(Cl)cc(-c2cnc(COc3cccc(Cl)c3Cl)nn2)cc1Cl` [Compound 37, 2,6-dichloro-4-(3-((2,3-dichlorophenoxy)methyl)-1,2,4-triazin-6-yl)phenol], it took 8.61 µM to reach half-maximal inhibition (IC50). As for `O=C(c1cccc(C(F)(F)F)c1)N1CCN(Cc2cc(Cl)ccc2OCc2ncc(-c3cc(Br)c(O)c(Br)c3)nn2)CC1` [Compound 126, (4-(5-chloro-2-((6-(3,5-dibromo-4-hydroxyphenyl)-1,2,4-triazin-3-yl)methoxy)benzyl)piperazin-1-yl)(3-(trifluoromethyl)phenyl)methanone], the figure is 5.44 µM; as for `Cc1cc(Cl)ccc1OCc1ncc(-c2cc(Br)c(O)c(Br)c2)nn1` [Compound 39, 2,6-dibromo-4-(3-((4-chloro-2-methylphenoxy)methyl)-1,2,4-triazin-6-yl)phenol], 10.9 µM; as for `Oc1c(Br)cc(-c2cnc(OC(c3cccc(C(F)(F)F)c3)c3cccc(C(F)(F)F)c3)nn2)cc1Br` [Compound 109, 4-(3-(bis(3-(trifluoromethyl)phenyl)methoxy)-1,2,4-triazin-6-yl)-2,6-dibromophenol], 12.2 µM. The molecule `Oc1c(Br)cc(-c2cnc(COc3cccc4ccccc34)nn2)cc1Br` [Compound 33, 2,6-Dibromo-4-(3-((naphthalen-1-yloxy)methyl)-1,2,4-triazin-6-yl)phenol] gave an IC50 of 5.39 µM. As for `Oc1c(Br)cc(-c2cnc(OCc3ccc(F)cc3Cl)nn2)cc1Br` [Compound 9, 2,6-dibromo-4-(3-(2-chloro-4-fluorobenzyloxy)-1,2,4-triazin-6-yl)phenol], the figure is 0.77 µM; as for `CN(Cc1ccc(COc2ncc(-c3cc(Cl)c(O)c(Cl)c3)nn2)cc1)Cc1ccc(F)c(F)c1` [Compound 184, 2,6-dichloro-4-(3-(4-(((3,4-difluorobenzyl)(methyl)amino)methyl)benzyloxy)-1,2,4-triazin-6-yl)phenol], 4.94 µM.

As a reminder, the IC50 is the concentration at which inhibition is half-maximal. The low end stands for inhibition by little substance, the high end for a need for much substance.

(Values after patent publication US20090264433A1, “Compounds, Compositions and Methods Comprising Triazine Derivatives” (Institute for OneWorld Health, priority 2008, published 2009).)
